Test results reported in patent US4419517A, “4a-Aryl-trans-decahydroisoquinolines” (E. I. Du Pont de Nemours & Co., priority 1975, dated 1983).

Columns and labels:
[1] = test system: phenylquinone-induced stretching or writhing syndrome; test: Phenylquinone writhing test, oral, female white mice (modified from Siegmund et al.); type: in vivo; details: for ED50: Mus musculus, po, suspended in 1% Methocel, fasted female white mice, phenylquinone i.p. 23 or 30 min later, observed 10 min, moving average method, read-out: oral ED50 (effective analgesic dose for 50% of the mice); for analgesic activity of the optical isomers, in words: dextro and laevo forms; for ED50 (optical isomers, phenylquinone writhing test described in Example A): optical isomers of N-methyl-4a-phenyl-trans-decahydroisoquinoline, mice, test as in Example A
Method: In a standard mouse test modified from Siegmund et al. [Proc. Soc. Exp. Biol. Med. 95, 729 (1957)], a test compound suspended in 1% Methocel® was given orally to fasted (17-21 hours) female white mice, 5-20 animals per double blind test. Aqueous (0.01%) phenyl-p-benzoquinone (phenylquinone) was injected intraperitoneally at 23 or 30 minutes later using 0.25 ml per mouse. […] The effective analgesic dose for 50% of the mice (ED50) was calculated by the moving average method of Weil [Biometrics 8, 249 (1952)].The oral ED50 dosages of several compounds of the invention are: […]

Straub tail = Straub tail in mice; type: in vivo; details: dose not stated
Description: Included in this group are the compounds of examples 9, 10, 16 and 18.

[2] = J. Am. Chem. Soc. 72, 712 (1950); cited from earlier work

Row | SMILES | ED50 [1] [mg/kg] | Straub tail in mice (evidence for appearing to be nonaddicting) (Straub tail) | other results
1 | COc1cccc([C@@]23CCCC[C@H]2CN(C)CC3)c1 (relative stereo) [Example 3-E, N-Methyl-4a-(m-methoxyphenyl)-trans-decahydroisoquinoline] | 3 | – | –
2 | COc1cccc([C@@]23CCCC[C@H]2CN(CC2CC2)CC3)c1 (relative stereo) [Example 9, N-Cyclopropylmethyl-4a-(m-methoxyphenyl)-trans-decahydroisoquinoline] | 8 | do not produce the Straub tail | –
3 | COc1cccc(C23CCN(CC4CC4)CC2CCC(C)C3)c1 (stereo not drawn) [Example 18, N-cyclopropylmethyl-4a-(m-methoxyphenyl)-6-methyl-trans-decahydroisoquinoline] | – | do not produce the Straub tail | –
4 | CN1CC[C@]2(c3cccc(O)c3)CCCC[C@H]2C1 (relative stereo) [Example 4, N-methyl-4a-(m-hydroxyphenyl)-trans-decahydroisoquinoline] | 2.3 | – | –
5 | CN1CC[C@@]2(c3ccccc3)CCCC[C@@H]2C1 (relative stereo) [Laevo (Ex. 2H-1), laevo-N-Methyl-4a-phenyl-trans-decahydroisoquinoline] | – | – | analgesic activity of the optical isomers, in words ([1]; phenylquinone writhing test): active; ED50 (optical isomers, phenylquinone writhing test described in Example A) [1]: 23.0 mg/kg
6 | Oc1cccc([C@@]23CCCC[C@H]2CN(CC2CC2)CC3)c1 (relative stereo) [Example 10, N-Cyclopropylmethyl-4a-(m-hydroxyphenyl)-trans-decahydroisoquinoline] | – | do not produce the Straub tail | –
7 | CN1CC[C@]2(c3ccccc3)CCCC[C@@H]2C1 (relative stereo) [N-methyl-4a-phenyl-cis-decahydroisoquinoline] | – | – | analgesic activity [2]: low analgesic activity
8 | CN1CC[C@@]2(c3ccccc3)CCCC[C@@H]2C1 (relative stereo) [Dextro (Ex. 2H-2), dextro-N-Methyl-4a-phenyl-trans-decahydroisoquinoline] | – | – | analgesic activity of the optical isomers, in words ([1]; phenylquinone writhing test): active; analgesic effectiveness of dextro form compared with laevo form ([1]; dextro vs laevo form, phenylquinone writhing test): significantly more effective than the laevo form; ED50 (optical isomers, phenylquinone writhing test described in Example A) [1]: 3.5 mg/kg
9 | CCCCCCN1CC[C@]2(c3cccc(O)c3)CCCC[C@H]2C1 (relative stereo) [Example 16, N-(n-Hexyl)-4a-(m-hydroxyphenyl)-trans-decahydroisoquinoline] | – | do not produce the Straub tail | –
